Results on 1 compound are retold here after article PMC12242667, “Attenuation of 6‑OHDA-Induced Neurotoxicity by 1,2,3-Triazole-Based Sulfonamides through SIRT1 Activity” (ACS Omega, 2025).

Like-named read-outs stand apart in the source and are kept apart here.

Data set [1] is described as follows: Cytotoxicity of 6-OHDA against SH-SY5Y cells, MTT assay. The format is cell-based. The settings on record: human, SH-SY5Y neuronal cells, relative to control, read-out: cell viability; for viability at 24 h: 6-OHDA. The procedure:
Prior to investigations, 1.0 × 10^5 SH-SY5Y neuronal cells/mL were seeded into 96-well plates for 24 h. To determine the optimal concentration of 6-OHDA for inducing neurotoxicity, cells were seeded into 96-well plates for 24 h and treated with various concentrations of 6-OHDA ranging from 25 to 125 μM for another 24 h. For the evaluation of the cytotoxicity of 1,2,3-triazole-based sulfonamide derivatives on SH-SY5Y neuronal cells, the cells were treated with various concentrations (0.1–10 μM) of 1,2,3-triazole-based sulfonamide derivatives for 24 h.^29 To assess the neuroprotective activity of 1,2,3-triazole-based sulfonamide derivatives, the cells were pretreated with various concentrations (0.1–10 μM) of 1,2,3-triazole-based sulfonamide derivatives for 3 h before being treated with 50 μM of 6-OHDA for another 24 h. Cell viability was assessed by incubating with 5 mg/mL of MTT reagent for 3 h at 37 °C, followed by absorbance measurement at 570 nm using a microplate reader (Thermo Fisher Scientific Inc., MA, USA). The viability of SH-SY5Y cells at each concentration was analyzed as a percentage relative to the control group.
For orientation: Tetrazolium assays rely on reduction of a dye to a coloured formazan, in cell work by metabolically active cells.

Data set [2] has as its system 6-OHDA-induced SH-SY5Y neuronal cells. Nature of the data set: Intracellular ROS production, H2DCFDA assay. Particulars: Homo sapiens, 50 μM 6-OHDA alone, 24 h, relative to control. In kind it is cell-based. The procedure: ROS production in SH-SY5Y neuronal cells was investigated using H2DCFDA. 1.0 × 10^5 cells/mL of SH-SY5Y neuronal cells were seeded into 96-well plates for 24 h, and 5 μM of selected 1,2,3-triazole-based sulfonamide derivatives were pretreated for 3 h. Then, neurotoxicity of the cells were induced with 50 μM of 6-OHDA for another 24 h. The neuronal cells with 10 μM H2DCFDA were incubated for 30 min at 37 °C in the dark. The emission and excitation wavelengths of 528 nm and 485 nm, respectively, were measured by using a microplate reader. The measured ROS production was calculated as a percentage relative to the control group.

Data set [3] shares this test system. Nature of the data set: Cellular leakage of LDH enzyme. The settings on record: 50 μM 6-OHDA alone, 24 h, percentage of control. In kind it is cell-based, Human. The procedure: Leakage of LDH, an enzyme commonly used as an assessment factor to evaluate cellular damage, was measured to determine the protective ability of the compounds against 6-OHDA-induced neuronal damage. 1.0 × 10^5 cells/mL of SH-SY5Y neuronal cells were seeded into 6-well plates for 24 h. The cells were pretreated with 5 μM of 1,2,3-triazole-based sulfonamide derivatives for 3 h before being treated with 50 μM of 6-OHDA for 24 h. The cell culture medium of SH-SY5Y cells was collected, and LDH leakage was evaluated using the LDH assay kit. In the presence of LDH, lactate is converted into pyruvate, resulting in an elevated level of NADH production, which is determined via the change in absorbance at 450 nm. LDH activity was calculated according to the manufacturer’s instructions and shown as a percentage of the control group.

For a further data set, the target named is T1, SIRT1 (Homo sapiens, UniProt Q96EB6).
T1 construct: endogenous in cells; host or cells: SH-SY5Y
T1 sequence (Q96EB6 1-747): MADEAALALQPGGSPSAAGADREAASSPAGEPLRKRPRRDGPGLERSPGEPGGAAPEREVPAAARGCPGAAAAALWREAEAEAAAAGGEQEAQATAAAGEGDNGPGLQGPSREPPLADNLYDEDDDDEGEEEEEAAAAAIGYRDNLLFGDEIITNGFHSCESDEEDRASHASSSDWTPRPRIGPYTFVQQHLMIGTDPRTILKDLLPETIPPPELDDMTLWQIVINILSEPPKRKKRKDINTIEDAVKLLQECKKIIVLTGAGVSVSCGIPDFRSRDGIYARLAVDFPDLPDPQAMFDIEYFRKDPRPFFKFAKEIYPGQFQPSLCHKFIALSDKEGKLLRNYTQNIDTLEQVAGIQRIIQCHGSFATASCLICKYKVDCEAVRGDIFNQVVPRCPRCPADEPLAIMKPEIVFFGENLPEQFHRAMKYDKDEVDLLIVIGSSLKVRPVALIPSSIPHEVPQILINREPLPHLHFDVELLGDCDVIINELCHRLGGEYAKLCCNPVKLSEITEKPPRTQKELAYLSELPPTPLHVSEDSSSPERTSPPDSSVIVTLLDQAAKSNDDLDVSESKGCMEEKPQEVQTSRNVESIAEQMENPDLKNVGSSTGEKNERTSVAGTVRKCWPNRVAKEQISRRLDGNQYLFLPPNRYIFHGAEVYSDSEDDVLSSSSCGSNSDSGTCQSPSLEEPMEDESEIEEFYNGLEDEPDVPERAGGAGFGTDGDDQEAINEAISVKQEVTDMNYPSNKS
Nature of the data set: SIRT1 deacetylase activity in SH-SY5Y cell lysate. In kind it is cell-based. The settings on record: 24 h, read-out: SIRT1 activity. The procedure: SH-SY5Y neuronal cells at 1.0 × 10^5 cells/mL were seeded into 6-well plates for 24 h. Then, the cells were pretreated with 5 μM 1,2,3-triazole-based sulfonamide derivatives for 3 h before neurotoxicity was induced with 50 μM 6-OHDA for another 24 h. The cell culture medium was rinsed off with cold 1X PBS. The cells were incubated at 4 °C with 1X RIPA buffer containing a protease inhibitor for 20 min before being harvested using a cell scraper, followed by centrifugation at 12,000 rpm for 20 min. Protein concentrations were measured using the Bradford protein assay, and SIRT1 activity in the cells was determined following the manufacturer’s instructions. The increase in SIRT1 enzyme activity was measured by fluorescence intensity at an excitation wavelength of 340 nm and an emission wavelength of 445 nm. SIRT1 enzyme activity was statistically analyzed as a percentage relative to the control group.

A word on the viability: it is the share of living cells, or the viability signal relative to a control. Consider `NCCc1cc(O)c(O)cc1O` [6-OHDA, 6-hydroxydopamine], for which, in data set [1] (6-OHDA 25 μM (first of five concentrations 25–125 μM)), the viability at 24 h, 25 μM came out at 90 ± 2.81%. Moreover, in data set [1] (6-OHDA 125 μM (fifth of five concentrations 25–125 μM)), the viability at 24 h, 125 μM amounted to 54.4 ± 3.06%. In addition, the viability at 24 h in data set [1] (fourth of five concentrations 25–125 μM) was 56.2 ± 2.37%; in data set [1] (second of five concentrations 25–125 μM), 78.5 ± 2.73%; in data set [1] (third of five concentrations 25–125 μM), 61.6 ± 2.44%. The results for the activity at 50 µM (in data set [2]; at SIRT1) were 119 ± 4.75% and 78.8 ± 3.74%, respectively. For the same compound, in data set [3], the LDH activity turned out to be 132.4 ± 5.089%.
